Assay results from patent EP4567032A1, “KIF18A INHIBITOR COMPOUND, AND PHARMACEUTICAL COMPOSITION AND PREPARATION METHOD THEREFOR AND USE THEREOF” (Changchun Genescience Pharmaceutical Co., Ltd., priority 2022, dated 2024).

Key:
OVCAR-3 cells = test: imaging-based nuclear count analysis (NCA) in OVCAR-3 cells; type: cell-based; conditions: Homo sapiens, 96 h, cultured 4 days, Hoechst 33342 nuclear count, 0.1% DMSO
Description: Test name: imaging-based nuclear count analysis (NCA) in OVCAR-3 cells
• a) When the cell confluence reached 80%-90%, the cells were treated. • b) The cells were resuspended in a medium and then counted and diluted at a desired density. • c) A cell suspension containing appropriate cells was added to the 384-well plate at 30 µL/well: 600 cells/well.
• a) 30 µL of 8% fixative (final concentration 4%) was added and the plate was incubated at room temperature for 30 min. • b) The plate was centrifuged at 1000RPM for 30s. • c) The plate was washed twice with 60 µl/well PBS. • d) After immobilization, the cells were permeabilized and stained in 60 µL of a wash buffer containing 2 µg/mL Hoechst 33342 DNA dye (1% BSA, 0.2% Triton X-100, 1X PBS). • e) The plate was sealed and incubated at room temperature in the dark for 1 h. • f) It was washed with PBS 3 times. • g) 50µLPBS/well was added and the plate was scanned using HCS. • h) Data acquisition and detection
High-reading control wells: cells + 30 nL DMSO; low-reading control wells: 10 µM AM-5308.
IC50 (nM) was calculated using GraphPad Prism 8 software and the effect-dose curves of the compound were plotted. Table 1 Bioactivity data of the compound of the present application

KIF18A = molecular target: T1, KIF18A (Homo sapiens, UniProt Q8NI77); test: KIF18A enzyme activity test (ADP Glo); type: biochemical; conditions: ADP Glo luminescence, 60 min reaction at room temperature, 1% DMSO
T1 sequence (Q8NI77 1-898): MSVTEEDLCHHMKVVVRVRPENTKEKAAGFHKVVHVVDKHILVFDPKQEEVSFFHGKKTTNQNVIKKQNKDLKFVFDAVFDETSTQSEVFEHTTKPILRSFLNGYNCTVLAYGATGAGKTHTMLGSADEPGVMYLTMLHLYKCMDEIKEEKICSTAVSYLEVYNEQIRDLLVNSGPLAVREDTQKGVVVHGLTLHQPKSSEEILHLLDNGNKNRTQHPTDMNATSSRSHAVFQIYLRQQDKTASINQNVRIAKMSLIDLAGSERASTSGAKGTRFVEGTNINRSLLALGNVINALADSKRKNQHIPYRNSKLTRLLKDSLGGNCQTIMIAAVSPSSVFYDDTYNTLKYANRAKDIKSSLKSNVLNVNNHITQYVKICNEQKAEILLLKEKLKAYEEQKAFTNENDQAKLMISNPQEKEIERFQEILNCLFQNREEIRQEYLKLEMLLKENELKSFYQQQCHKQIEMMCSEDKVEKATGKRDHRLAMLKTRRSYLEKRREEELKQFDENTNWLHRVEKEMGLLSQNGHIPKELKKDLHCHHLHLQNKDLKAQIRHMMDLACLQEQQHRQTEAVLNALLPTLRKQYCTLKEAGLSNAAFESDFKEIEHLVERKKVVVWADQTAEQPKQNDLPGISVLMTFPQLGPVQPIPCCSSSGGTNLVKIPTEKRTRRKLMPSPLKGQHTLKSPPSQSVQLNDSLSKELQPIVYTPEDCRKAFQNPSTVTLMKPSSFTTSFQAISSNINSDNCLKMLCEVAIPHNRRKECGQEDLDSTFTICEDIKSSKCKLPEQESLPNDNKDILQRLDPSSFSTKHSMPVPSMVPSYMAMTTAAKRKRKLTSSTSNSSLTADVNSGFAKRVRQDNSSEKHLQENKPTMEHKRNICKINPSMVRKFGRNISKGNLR
Description: Test name: KIF18A enzyme activity test
• 1) Compound dilution and treatment: The final concentrations of AM-5308: 10000, 3333.3, 1111.1, 370.3, 123.4, 41.1, 13.7, 4.5, 1.5, 0.5 nM, the final testing concentrations of the testing compound: 10000, 3333.3, 1111.1, 370.3, 123.4, 41.1, 13.7, 4.5, 1.5 and 0.5 nM. • 2) To each well of the reaction plate, 100 nL of the diluted compound stock solution was transferred using Echo 655. The final concentration of DMSO was 1%. • 3) The reaction plate was sealed with a sealing membrane and centrifuged at 1000g for 1 min. • 4) A 2× enzyme solution was prepared with 1× reaction buffer. • 5) To each well of the reaction plate, 5 µL of 2×enzyme solution was added. The plate was sealed with a sealing membrane, centrifuged at 1000g for 1 min and left at room temperature for 15 min. • 6) A 2× ATP solution was prepared with 1× reaction buffer. • 7) To the reaction plate, 5 µL of 2×ATP solution was added, the plate was centrifuged at 1000g for 1 min, and the reaction was started. • 8) The system was allowed to react at room temperature for 60 min. • 9) 10 µL of ADP Glo reagent was added. The system was centrifuged at 1000 g for 1 min and incubated at room temperature for 60 min. • 10) 20 µL of kinase detection reagent was added. The system was centrifuged at 1000 g for 1 min, and incubated at room temperature for 60 min. • 11) The system was centrifuged at 1000 g for 1 min. • 12) The luminescence signals were read on Envision 2104.
The inhibition percentage is calculated as follows: %inhibition = 100−(Signalcmpd−SignalAve_PC)/(SignalAve_VC−SignalAve_PC) × 100 [formula] • Signalcmpd: Average value of the test compound on the reaction plate. • SignalAve_PC: Average value of the positive control (AM-5308) on the reaction plate. • SignalAve_VC: Average value of the negative control (DMSO) on the reaction plate.
IC50 was calculated and the dose-effect curve was fit: The IC50 of the compound was obtained by non-linear fitting formula with GraphPad 8.0.
Z factor > 0.5; S/B > 2. Table 2 Enzyme activity data for the compound of the present application

| IC50 (OVCAR-3 cells) | IC50 (KIF18A) | SMILES |
| --- | --- | --- |
| 72.2 nM | 13.7 nM | O=C(Nc1cccc2c1nc1n2CCC1)c1ccc(NS(=O)(=O)CCO)cc1N1CCC2(CC1)CC2 [Compound 36, N-(2,3-dihydro-1H-benzo[d]pyrrolo[1,2-a]imidazol-5-yl)-4-(2-hydroxyethanesulfonylamino)-2-(6-azaspiro[2.5]octan-6-yl)benzamide] |
| 36.1 nM | 15.1 nM | O=C(Nc1cccc2c1nc1n2CCC1(F)F)c1ccc(NS(=O)(=O)CCO)cc1N1CCC2(CC1)CC2 [Compound 94, N-(3,3-difluoro-2,3-dihydro-1H-benzo[d]pyrrolo[1,2-a]imidazol-5-yl)-4-(2-hydroxyethanesulfonylamino)-2-(6-azaspiro[2.5]octan-6-yl)benzamide] |
| 89.7 nM | 8.97 nM | O=C(Nc1cccc2c1nc1n2C2CCC1C2)c1ccc(NS(=O)(=O)CCO)cc1N1CCC2(CC1)CC2 (stereo not shown) [Compound 96, 4-(2-hydroxyethanesulfonylamino)-2-(6-azaspiro[2.5]octan-6-yl)-N-(1,2,3,4-tetrahydro-1,4-methylenebenzo[4,5]imidazo[1,2-a]pyridin-6-yl)benzamide] |
| 60.9 nM | 5.35 nM | O=C(Nc1cccc2c1nc1n2[C@H]2CC[C@@H]1C2)c1ccc(NS(=O)(=O)CCO)cc1N1CCC2(CC1)CC2 [Compound 96a, 4-(2-hydroxyethanesulfonylamino) -2-(6-azaspiro[2.5]octan-6-yl)-N-((1S,4R)-1,2,3,4-tetrahydro-1,4-methylenebenzo[4,5]imidazo [1,2-a]pyridin-6-yl)benzamide] |
| 170 nM | 26.5 nM | CC1CCCn2c1nc1c(NC(=O)c3ccc(NS(=O)(=O)CCO)cc3N3CCC4(CC3)CC4)cccc12 (stereo not shown) [Compound 98, 4-(2-hydroxyethanesulfonylamino)-N-(4-methyl-1,2,3,4-tetrahydrobenzo[4,5]imidazo[1,2-a]pyridin-6-yl)-2-(6-azaspiro[2.5]octan-6-yl)benzamide] |

More lines, now with the values behind:

| SMILES | IC50 (OVCAR-3 cells) | IC50 (KIF18A) |
| --- | --- | --- |
| COc1ccc2c(NC(=O)c3ccc(NS(=O)(=O)CCO)cc3N3CCC4(CC3)CC4)cccc2c1 [Compound 1, 2-{6-azaspiro[2.5]octan-6-yl}-4-(2-hydroxyethanesulfonylamino)-N-(6-methoxynaphthalen-1-yl)benzamide] | 163 nM | 21.2 nM |
| O=C(Nc1cccc2c1nc1n2CCCC1)c1ccc(NS(=O)(=O)CCO)cc1N1CCC2(CC1)CC2 [Compound 22, 4-(2-hydroxyethanesulfonylamino)-2-(6-azaspiro[2.5]octan-6-yl)-N-(benzo[4,5]imidazo[1,2-a]piperidin-6-yl)benzamide] | 143 nM | 21.3 nM |
| O=C(Nc1cccc2c1nc1n2CCCCC1)c1ccc(NS(=O)(=O)CCO)cc1N1CCC2(CC1)CC2 [Compound 97, 4-(2-hydroxyethanesulfonylamino)-2-(6-azaspiro[2.5]octan-6-yl)-N-(7,8,9,10-tetrahydro-6H-benzo[4,5]imidazo[1,2-a]azepin-4-yl)benzamide] | 58.8 nM | 9.09 nM |
